According to ChEMBL document CHEMBL4619760, “Anti-inflammatory Efficacy of Combined Natural Alkaloid Berberine and S1PR Modulator Fingolimod at Low Doses in Ulcerative Colitis Preclinical Models” (J Nat Prod, 2020):
Calls of active or inactive are those of the source. The calls are words filed in the database; no cut-off is given here.

Experiments:
Mus musculus [1] = assay: Anti-colitis activity against DSS-induced C57BL/6 mouse model of subchronic relapsing colitis assessed as effect on body weight at 40 mg/kg, po administered once daily for 14 days starting from day 5 post DSS challenge and measured after day 12 to day 18; type: functional, organism-based
Mus musculus [2] = assay: Anti-colitis activity against DSS-induced C57BL/6 mouse model of subchronic relapsing colitis assessed as reduction in stool consistency scores at 40 mg/kg, po administered once daily for 14 days starting from day 5 post DSS challenge and measured on day 19; type: functional, organism-based
Mus musculus [3] = assay: Anti-colitis activity against DSS-induced C57BL/6 mouse model of subchronic relapsing colitis assessed as reduction in stool bleeding scores at 40 mg/kg, po administered once daily for 14 days starting from day 5 post DSS challenge and measured on day 19; type: functional, organism-based
Mus musculus [4] = assay: Anti-colitis activity against DSS-induced C57BL/6 mouse model of subchronic relapsing colitis assessed as reduction in disease activity index at 40 mg/kg, po administered once daily for 14 days starting from day 5 post DSS challenge and measured on day 19; type: functional, organism-based
Mus musculus [5] = assay: Anti-colitis activity against DSS-induced C57BL/6 mouse model of subchronic relapsing colitis assessed as reduction in DSS-induced colon shortening at 40 mg/kg, po administered once daily for 14 days starting from day 5 post DSS-challenge; type: functional, organism-based
Mus musculus [6] = assay: Anti-colitis activity against DSS-induced C57BL/6 mouse model of subchronic relapsing colitis assessed as reduction in colon swelling at 40 mg/kg, po administered once daily for 14 days starting from day 5 post DSS-challenge; type: functional, organism-based
Mus musculus [7] = assay: Anti-colitis activity against DSS-induced C57BL/6 mouse model of subchronic relapsing colitis assessed as reduction in spleen swelling at 40 mg/kg, po administered once daily for 14 days starting from day 5 post DSS-challenge; type: functional, organism-based
Mus musculus [8] = assay: Anti-colitis activity against DSS-induced C57BL/6 mouse model of chronic relapsing colitis assessed as reduction in stool consistency score at 40 mg/kg, po administered once daily for 30 days starting from day 13 post DSS-challenge measured on day 24; type: functional, organism-based
Mus musculus [9] = assay: Anti-colitis activity against DSS-induced C57BL/6 mouse model of chronic relapsing colitis assessed as reduction in stool bleeding at 40 mg/kg, po administered once daily for 30 days starting from day 13 post DSS-challenge measured on day 38; type: functional, organism-based
Mus musculus [10] = assay: Anti-colitis activity against DSS-induced C57BL/6 mouse model of chronic relapsing colitis assessed as reduction in disease activity index at 40 mg/kg, po administered once daily for 30 days starting from day 13 post DSS-challenge and measured on day 24; type: functional, organism-based
Mus musculus [11] = assay: Anti-colitis activity against DSS-induced C57BL/6 mouse model of chronic relapsing colitis assessed as reduction in stool consistency score at 40 mg/kg, po administered once daily for 30 days starting from day 13 post DSS-challenge measured on day 43; type: functional, organism-based
Mus musculus [12] = assay: Anti-colitis activity against DSS-induced C57BL/6 mouse model of chronic relapsing colitis assessed as reduction in stool bleeding at 40 mg/kg, po administered once daily for 30 days starting from day 13 post DSS-challenge measured on day 43; type: functional, organism-based
Mus musculus [13] = assay: Anti-colitis activity against DSS-induced C57BL/6 mouse model of chronic relapsing colitis assessed as reduction in disease activity index at 40 mg/kg, po administered once daily for 30 days starting from day 13 post DSS-challenge and measured on day 43; type: functional, organism-based
Mus musculus [14] = assay: Anti-colitis activity against DSS-induced C57BL/6 mouse model of chronic relapsing colitis assessed as reversal of DSS-induced colon shortening at 40 mg/kg, po administered once daily for 30 days starting from day 13 post DSS-challenge; type: functional, organism-based
Mus musculus [15] = assay: Anti-colitis activity against DSS-induced C57BL/6 mouse model of subchronic relapsing colitis assessed as reduction in DSS-induced colon swelling at 40 mg/kg, po administered once daily for 30 days starting from day 13 post DSS-challenge; type: functional, organism-based
Mus musculus [16] = assay: (§1) Anti-colitis activity against DSS-induced C57BL/6 mouse model of chronic relapsing colitis assessed as reduction in DSS-induced multiple erosive lesions in colon at 40 mg/kg, po administered once daily for 30 days starting from day 13 post DSS-challenge by hematoxylin and eosin staining based light microscopic analysis; type: functional, organism-based
Mus musculus [17] = assay: as §1, with “loss of” for “multiple erosive lesions in”, “colon crypt and columnar epithelium” for “colon”; type: functional, organism-based
Mus musculus [18] = assay: as §1, with “inflammatory cell infiltration” for “multiple erosive lesions in colon”; type: functional, organism-based
[19] = Toxicity in DSS-induced C57BL/6 mouse model of chronic relapsing colitis assessed as induction of abnormalities in heart at 40 mg/kg, po administered once daily for 30 days starting from day 13 post DSS-challenge by hematoxylin and eosin staining based light microscopic analysis; type: organism-based; conditions: in vivo, 720 h
[20] = Toxicity in DSS-induced C57BL/6 mouse model of chronic relapsing colitis assessed as induction of abnormalities in liver at 40 mg/kg, po administered once daily for 30 days starting from day 13 post DSS-challenge by hematoxylin and eosin staining based light microscopic analysis; type: organism-based; conditions: in vivo, 720 h
[21] = Toxicity in DSS-induced C57BL/6 mouse model of chronic relapsing colitis assessed as induction of abnormalities in kidney at 40 mg/kg, po administered once daily for 30 days starting from day 13 post DSS-challenge by hematoxylin and eosin staining based light microscopic analysis; type: organism-based; conditions: in vivo, 720 h
[22] = Toxicity in DSS-induced C57BL/6 mouse model of chronic relapsing colitis assessed as induction of abnormalities in brain at 40 mg/kg, po administered once daily for 30 days starting from day 13 post DSS-challenge by hematoxylin and eosin staining based light microscopic analysis; type: organism-based; conditions: in vivo, 720 h
[23] = Toxicity in DSS-induced C57BL/6 mouse model of chronic relapsing colitis assessed as induction of abnormalities in lung at 40 mg/kg, po administered once daily for 30 days starting from day 13 post DSS-challenge by hematoxylin and eosin staining based light microscopic analysis; type: organism-based; conditions: in vivo, 720 h
Mus musculus [24] = assay: Antiinflammatory activity against DSS-induced C57BL/6 mouse model of subchronic relapsing colitis assessed as reduction in IL17 mRNA level at 40 mg/kg, po administered once daily for 14 days starting from day 5 post DSS-challenge by RT-qPCR analysis; type: functional, organism-based
Mus musculus [25] = assay: Antiinflammatory activity against DSS-induced C57BL/6 mouse model of subchronic relapsing colitis assessed as reduction in TNFalpha mRNA level at 40 mg/kg, po administered once daily for 14 days starting from day 5 post DSS-challenge by RT-qPCR analysis; type: functional, organism-based
Mus musculus [26] = assay: Antiinflammatory activity against DSS-induced C57BL/6 mouse model of subchronic relapsing colitis assessed as reduction in IL6 mRNA level at 40 mg/kg, po administered once daily for 14 days starting from day 5 post DSS-challenge by RT-qPCR analysis; type: functional, organism-based
Mus musculus [27] = assay: Antiinflammatory activity against DSS-induced C57BL/6 mouse model of subchronic relapsing colitis assessed as reduction in S1PR1 mRNA level at 40 mg/kg, po administered once daily for 14 days starting from day 5 post DSS-challenge by RT-qPCR analysis; type: functional, organism-based
Mus musculus [28] = assay: Anti-colitis activity against DSS-induced C57BL/6 mouse model of subchronic relapsing colitis assessed as reduction in phosphorylated STAT3 level at 40 mg/kg, po administered once daily for 14 days starting from day 5 post DSS-challenge by Western blot analysis; type: functional, organism-based
Mus musculus [29] = assay: Effect on total STAT3 expression in DSS-induced C57BL/6 mouse model of subchronic relapsing colitis at 40 mg/kg, po administered once daily for 14 days starting from day 5 post DSS-challenge by Western blot analysis; type: ADME, organism-based; conditions: in vivo, 336 h
Mus musculus [30] = assay: Effect on total S1PR1 expression in DSS-induced C57BL/6 mouse model of subchronic relapsing colitis at 40 mg/kg, po administered once daily for 14 days starting from day 5 post DSS-challenge by Western blot analysis; type: ADME, organism-based; conditions: in vivo, 336 h
THP-1 [31] = assay: Antiinflammatory activity in human THP1 cells assessed as reduction in LPS-induced IL6 mRNA level at 1 uM incubated for 1 hr followed by LPS challenge and measured after 4 to 6 hrs by q-PCR method; type: functional, cell-based
THP-1 [32] = assay: Antiinflammatory activity in human THP1 cells assessed as reduction in LPS-induced TNFalpha mRNA level at 1 uM incubated for 1 hr followed by LPS challenge and measured after 4 to 6 hrs by q-PCR method; type: functional, cell-based
[33] = target: Signal transducer and activator of transcription 3 (Homo sapiens) (UniProt P40763); assay: Inhibition of STAT3 activation in human THP1 cells assessed as reduction in LPS-induced phosphorylated STAT3 expression at 1 uM incubated for 1 hr followed by LPS challenge and measured after 4 to 6 hrs by Western blot analysis; type: cell-based; conditions: THP-1
Sequence of Signal transducer and activator of transcription 3 (Homo sapiens) (P40763 whole entry): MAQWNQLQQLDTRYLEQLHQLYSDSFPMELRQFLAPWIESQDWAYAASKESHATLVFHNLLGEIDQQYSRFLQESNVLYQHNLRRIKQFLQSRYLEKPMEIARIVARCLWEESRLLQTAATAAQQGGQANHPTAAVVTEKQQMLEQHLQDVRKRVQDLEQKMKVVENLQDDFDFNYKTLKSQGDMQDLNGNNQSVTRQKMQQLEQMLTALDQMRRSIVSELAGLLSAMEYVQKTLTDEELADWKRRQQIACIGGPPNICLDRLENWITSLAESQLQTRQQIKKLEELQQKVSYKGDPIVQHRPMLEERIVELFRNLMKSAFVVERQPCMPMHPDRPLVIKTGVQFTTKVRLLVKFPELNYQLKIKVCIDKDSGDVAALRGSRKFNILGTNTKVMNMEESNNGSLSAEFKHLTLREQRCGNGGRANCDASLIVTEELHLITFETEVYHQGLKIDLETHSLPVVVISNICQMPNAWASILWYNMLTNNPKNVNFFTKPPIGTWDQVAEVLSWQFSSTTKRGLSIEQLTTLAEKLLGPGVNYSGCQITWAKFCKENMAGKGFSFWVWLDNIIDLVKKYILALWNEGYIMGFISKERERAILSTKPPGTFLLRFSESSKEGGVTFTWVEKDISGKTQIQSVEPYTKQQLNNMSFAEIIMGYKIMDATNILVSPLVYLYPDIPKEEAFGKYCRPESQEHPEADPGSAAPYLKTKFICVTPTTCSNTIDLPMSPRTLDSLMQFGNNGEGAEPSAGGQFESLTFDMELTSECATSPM

[34] = target: Signal transducer and activator of transcription 3 (Homo sapiens) (UniProt P40763); assay: Inhibition of STAT3 activation in human THP1 cells assessed as reduction in LPS-induced phosphorylated STAT3 expression at 0.5 uM cotreated with 0.5 uM berberine incubated for 1 hr followed by LPS challenge and measured after 4 to 6 hrs by Western blot analysis; type: cell-based; conditions: THP-1

In the case of COc1ccc2cc3[n+](cc2c1OC)CCc1cc2c(cc1-3)OCO2.[Cl-] [BERBERINE CHLORIDE], the Activity (Mus musculus [1]) is reported as “inactive”, the Activity (Mus musculus [2]) is reported as “Active” and the Activity (Mus musculus [3]) is reported as “Active”. For the same molecule, the Activity (Mus musculus [4]) was “Active”, the Activity (Mus musculus [5]) was “Active” and the Activity (Mus musculus [6]) was “inactive”. The Activity (Mus musculus [7]) was “inactive”, the Activity (Mus musculus [8]) was “Active” and the Activity (Mus musculus [9]) was “Active”. For the same molecule, the Activity (Mus musculus [10]) was “Active”, the Activity (Mus musculus [11]) was “Active” and the Activity (Mus musculus [12]) was “Active”. For the same molecule, the Activity (Mus musculus [13]) was “Active”, the Activity (Mus musculus [14]) was “Active” and the Activity (Mus musculus [15]) was “inactive”. The Activity (Mus musculus [16]) was “Active”, the Activity (Mus musculus [17]) was “Active” and the Activity (Mus musculus [18]) was “Active”. For the same molecule, the Activity [19] was “Non-Toxic”, the Activity [20] was “Non-Toxic” and the Activity [21] was “Non-Toxic”. The Activity [22] was “Non-Toxic”, the Activity [23] was “Non-Toxic” and the Activity (Mus musculus [24]) was “Active”. The Activity (Mus musculus [25]) was “Active”, the Activity (Mus musculus [26]) was “Active” and the Activity (Mus musculus [27]) was “inactive”. The Activity (Mus musculus [28]) was “Active”, the Activity (Mus musculus [29]) was “Non-Toxic” and the Activity (Mus musculus [30]) was “Non-Toxic”. For the same molecule, the Activity (THP-1 [31]) was “Active”, the Activity (THP-1 [32]) was “Active” and the inhibition [33] was “Active”. For the same molecule, the inhibition [34] was “Active”.
